Data as given in US7943184B2, “Process for preparing an extract from ivy leaves” (Engelhard Arzneimittel GmbH & Co. KG, priority 2003, dated 2011).

Key:
[1] = Absorption studies on rats: α-hederin plasma concentration after i.v. or oral administration of ivy leaf extracts; type: in vivo; conditions: all samples after i.v. or p.o. administration of extract A or B
Excerpt: The influence of administration of two different extracts on the plasma concentration of α-hederin was subsequently investigated. The change in the plasma concentration of α-hederin with a single administration compared with multiple administration of the extract and with different blood sampling times after administration was also investigated, as was the α-hederin absorption rate. Two extracts whose saponin distribution is shown in Table 1 below were selected for this purpose:
For intravenous administration, the required amount of extract was dissolved in 11% (m/m) ethanol, filtered and injected. It was aimed to administer a volume of 2 ml of extract solution (dose in each case [mg/kg of bodyweight]: 25). A blood sample was taken from the animals 5 minutes after the administration. About 2 ml of whole blood with added EDTA for anticoagulation were required for each sample.
Suspensions of the extracts in glycerol were prepared for oral administration. The animals were gavaged with about 2 ml of these suspensions (dose in each case [mg/kg of bodyweight]: 1000 and 166.66). 2 ml of blood were taken from each of the animals 1 and 3 hours after the last administration in each case.
The total saponin content takes account of the molar masses of the two constituents and is based on α-hederin. The total saponin content in extract A in this case was 9.8%, based on α-hederin. […]

[2] = Absorption study by means of the biopharmaceutics classification system (BCS); type: in vitro ADME
Method: It was possible to show in an absorption study by means of the biopharmaceutics classification system (BCS) that α-hederin is to be attributed with a moderate absorption (10-90%). […] Absorption studies were carried out on rats for this purpose.

smooth muscles = assay: Spasmolytic activity / relaxation of smooth muscles; conditions: via binding to β-adrenergic receptors; recent studies by the applicant

Row | Structure (SMILES) | Hederacoside C in plasma samples [1] | permeation through the membranes ([2]; same conditions as BCS absorption study) | relaxation of smooth muscles (smooth muscles) | absorption (BCS) ([2]; biopharmaceutics classification system, moderate absorption)
1 | C[C@@H]1O[C@@H](O[C@H]2[C@H](O[C@H]3CC[C@@]4(C)[C@@H](CC[C@]5(C)[C@@H]4CC=C4[C@@H]6CC(C)(C)CC[C@]6(C(=O)O[C@@H]6O[C@H](CO[C@@H]7O[C@H](CO)[C@@H](O[C@@H]8O[C@@H](C)[C@H](O)[C@@H](O)[C@H]8O)[C@H](O)[C@H]7O)[C@@H](O)[C@H](O)[C@H]6O)CC[C@]45C)[C@]3(C)CO)OC[C@H](O)[C@@H]2O)[C@H](O)[C@H](O)[C@H]1O [hederacoside C] | not detectable | did not permeate through the membranes | – | –
2 | C[C@@H]1O[C@@H](O[C@H]2[C@H](O[C@H]3CC[C@@]4(C)[C@@H](CC[C@]5(C)[C@@H]4CC=C4[C@@H]6CC(C)(C)CC[C@]6(C(=O)O)CC[C@]45C)[C@]3(C)CO)OC[C@H](O)[C@@H]2O)[C@H](O)[C@H](O)[C@H]1O [α-hederin] | – | – | causes relaxation of smooth muscles | 10-90%
